Laboratory results as given in paper PMC10643470, “Knockout or inhibition of USP30 protects dopaminergic neurons in a Parkinson’s disease mouse model” (Nature Communications, 2023).
Several values for one entry are separate records, joined by “and”; a condition that tells them apart may be missing. Identical values can stand only once. Like-named read-outs stand apart in the source and are kept apart here.

Tests used:
[1] = test system: TOM20-ubiquitylation in alpha-synuclein A53T mutated iPSC-derived dopaminergic neurons; assay: TOM20-ubiquitylation in A53T iPSC-derived dopaminergic neurons; type: cell-based, human; conditions: no exogenous stimuli
From the text: Donor-derived DopaNeuron lines were generated from source material provided by the Parkinson’s Progression Markers Initiative (PPMI) through The Michael J. Fox Foundation. Human iPS cells-derived DopaNeurons were purchased from Fujifilm/Cellular Dynamics. Apparently healthy normal (AHN) (catalog # R1088) or alpha-synuclein A53T mutated (A53T) (catalog # R1109) iPSC-derived dopaminergic neurons (dopaneurons) were thawed from liquid nitrogen. 400 000 viable (counted using a cell counter) dopaneurons […] were plated per well into 24 well plates on day 0 in complete maintenance medium (CMM).
A half-medium change was performed on the cells on Day 3 with CMM. On Day 5 cells were half-medium changed with complete brainphys medium. […] Cells were given half medium changes with or without compounds (depending on whether treatments with compound had started) every 2-3 days.

[2] = Mouse blood and prefrontal cortex microdialysis pharmacokinetics (Kpu,u); type: in vivo; conditions: single 10 mg/kg oral dose, at the 60-min time point
Method: Mouse Kpu,u estimates were calculated from blood and prefrontal cortex compound profiles following oral dosing of 10 or 30 mg/kg by gavage, with sequential blood sampling from the jugular vein and sequential brain interstitial fluid sampling via a microdialysis probe in the prefrontal cortex.

[3] = Mouse exploratory toxicology; type: in vivo; conditions: two weeks of dosing, dose levels up to 300 mg/kg/day
[4] = test system: AAV-A53T-SNCA PD mouse model; assay: TH+ neuron counting in SNpc, AAV-A53T-SNCA mouse model (compound study); type: in vivo
From the text: (§1) For the compound study, the fixed, cryoprotected and frozen midbrain samples were sectioned as coronal sections at 100 µm intervals through SNpc and ventral tegmental area (VTA) and mounted on glass slides. Sectioning was started at −2.6 mm from bregma and continued to −3.7 mm from bregma in the AP axis (coordinates based on Franklin & Paxinos: The Mouse Brain in Stereotaxic Coordinates). For the immunostaining, the sections were stained with anti-TH following permeabilization. The stained sections were scanned with the Olympus VS120 slide scanner and analyzed with a VIS-Visiopharm Integrator System (Visiopharm, Denmark) by a blinded data analyst. All cells of interest with visible nuclei were labeled manually and counted using an APP (Analysis Protocol Package), scaled by section thickness and sectioning interval to estimate the total cell population in the SNpc. For immunostaining of Ser129 αSyn phosphorylation, TSA amplification was used with primary antibody ab51253 (Abcam). Blinded analysis was used, and positive cells per area were determined. For dual IF IHC of Iba1 (WAKO) and GFAP (ab4674 – Abcam), the stained sections were scanned and analyzed by a blinded data analyst. Analysis determines the percentage of positive staining area [%area = (stained area/region area) * (100)]. To calculate % of stained area, the same threshold value was applied to all sections with the same antibody staining. All pixels above the threshold value were considered positive. All striatal densitometry and neuronal counting data for both KO and inhibitor studies were obtained by an investigator blinded to genotype and treatment.

[5] = test system: AAV-A53T-SNCA PD mouse model; assay: Total αSyn and phospho-S129 αSyn immunostaining in SNpc, AAV-A53T-SNCA mouse model (compound study); type: in vivo
From the text: as §1

USP2 = USP2 (Homo sapiens, UniProt O75604); assay: DUB/cathepsin selectivity biochemical assay
Cathepsin L = Cathepsin L (Homo sapiens, UniProt P07711); assay: DUB/cathepsin selectivity biochemical assay; conditions: Supplementary Fig. 6a; read-out: Selectivity vs Cathepsins (IC50), Cath L
USP16 = USP16 (Homo sapiens, UniProt Q9Y5T5); assay: DUB/cathepsin selectivity biochemical assay
USP25 = USP25 (Homo sapiens, UniProt Q9UHP3); assay: DUB/cathepsin selectivity biochemical assay
USP6 = USP6 (Homo sapiens, UniProt P35125); assay: DUB/cathepsin selectivity biochemical assay
USP36 CD = biological target: T1, USP36 CD (Homo sapiens, UniProt Q9P275); assay: DUB/cathepsin selectivity biochemical assay
T1 construct: USP36 CD

MINDY3 = MINDY3 (Homo sapiens, UniProt Q9H8M7); assay: DUB/cathepsin selectivity biochemical assay
OTUB1/UBCH5B = OTUB1/UBCH5B (Homo sapiens, UniProt Q96FW1); assay: DUB/cathepsin selectivity biochemical assay
CYLD = CYLD (Homo sapiens, UniProt Q9NQC7); assay: DUB/cathepsin selectivity biochemical assay
SENP2 CD = biological target: T2, SENP2 CD (Homo sapiens, UniProt Q9HC62); assay: DUB/cathepsin selectivity biochemical assay
T2 construct: SENP2 CD

UchL5 = UchL5 (Homo sapiens, UniProt Q9Y5K5); assay: DUB/cathepsin selectivity biochemical assay
UchL3 = UchL3 (Homo sapiens, UniProt P15374); assay: DUB/cathepsin selectivity biochemical assay
OTUB2 = OTUB2 (Homo sapiens, UniProt Q96DC9); assay: DUB/cathepsin selectivity biochemical assay
USP7 = USP7 (Homo sapiens, UniProt Q93009); assay: DUB/cathepsin selectivity biochemical assay
OTUD5(p177S) = OTUD5(p177S) (Homo sapiens, UniProt Q96G74); assay: DUB/cathepsin selectivity biochemical assay
MINDY2 = MINDY2 (Homo sapiens, UniProt Q8NBR6); assay: DUB/cathepsin selectivity biochemical assay
USP15 = USP15 (Homo sapiens, UniProt Q9Y4E8); assay: DUB/cathepsin selectivity biochemical assay
USP1 = USP1 (Homo sapiens, UniProt O94782); assay: DUB/cathepsin selectivity biochemical assay
Trabid = Trabid (Homo sapiens, UniProt Q9UGI0); assay: DUB/cathepsin selectivity biochemical assay
USP20 = USP20 (Homo sapiens, UniProt Q9Y2K6); assay: DUB/cathepsin selectivity biochemical assay
[6] = AAV-A53T + MTX115325 (50 mg/kg), Group 5, Left hemisphere, individual animal values (Animal ID in r3)
[7] = AAV-A53T + MTX115325 (50 mg/kg), Group 5, Right hemisphere, individual animal values (Animal ID in r3)

Sequence of USP2 (O75604 whole entry, species assumed): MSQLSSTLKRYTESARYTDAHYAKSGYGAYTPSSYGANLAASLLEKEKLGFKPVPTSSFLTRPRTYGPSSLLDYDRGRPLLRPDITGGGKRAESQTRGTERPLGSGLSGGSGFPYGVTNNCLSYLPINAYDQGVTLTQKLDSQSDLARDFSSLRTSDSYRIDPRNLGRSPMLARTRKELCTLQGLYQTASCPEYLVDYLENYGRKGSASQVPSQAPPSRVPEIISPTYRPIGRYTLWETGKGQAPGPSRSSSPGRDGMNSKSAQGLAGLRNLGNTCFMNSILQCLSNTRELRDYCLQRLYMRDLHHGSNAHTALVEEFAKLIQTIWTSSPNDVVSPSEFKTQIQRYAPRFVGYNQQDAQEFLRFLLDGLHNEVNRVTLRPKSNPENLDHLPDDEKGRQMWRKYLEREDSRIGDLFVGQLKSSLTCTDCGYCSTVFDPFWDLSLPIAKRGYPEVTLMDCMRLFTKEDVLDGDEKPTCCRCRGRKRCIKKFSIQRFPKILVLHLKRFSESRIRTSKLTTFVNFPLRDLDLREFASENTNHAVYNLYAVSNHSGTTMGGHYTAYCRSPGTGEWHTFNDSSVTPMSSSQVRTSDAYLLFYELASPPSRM
Sequence of CYLD (Q9NQC7 whole entry, species assumed): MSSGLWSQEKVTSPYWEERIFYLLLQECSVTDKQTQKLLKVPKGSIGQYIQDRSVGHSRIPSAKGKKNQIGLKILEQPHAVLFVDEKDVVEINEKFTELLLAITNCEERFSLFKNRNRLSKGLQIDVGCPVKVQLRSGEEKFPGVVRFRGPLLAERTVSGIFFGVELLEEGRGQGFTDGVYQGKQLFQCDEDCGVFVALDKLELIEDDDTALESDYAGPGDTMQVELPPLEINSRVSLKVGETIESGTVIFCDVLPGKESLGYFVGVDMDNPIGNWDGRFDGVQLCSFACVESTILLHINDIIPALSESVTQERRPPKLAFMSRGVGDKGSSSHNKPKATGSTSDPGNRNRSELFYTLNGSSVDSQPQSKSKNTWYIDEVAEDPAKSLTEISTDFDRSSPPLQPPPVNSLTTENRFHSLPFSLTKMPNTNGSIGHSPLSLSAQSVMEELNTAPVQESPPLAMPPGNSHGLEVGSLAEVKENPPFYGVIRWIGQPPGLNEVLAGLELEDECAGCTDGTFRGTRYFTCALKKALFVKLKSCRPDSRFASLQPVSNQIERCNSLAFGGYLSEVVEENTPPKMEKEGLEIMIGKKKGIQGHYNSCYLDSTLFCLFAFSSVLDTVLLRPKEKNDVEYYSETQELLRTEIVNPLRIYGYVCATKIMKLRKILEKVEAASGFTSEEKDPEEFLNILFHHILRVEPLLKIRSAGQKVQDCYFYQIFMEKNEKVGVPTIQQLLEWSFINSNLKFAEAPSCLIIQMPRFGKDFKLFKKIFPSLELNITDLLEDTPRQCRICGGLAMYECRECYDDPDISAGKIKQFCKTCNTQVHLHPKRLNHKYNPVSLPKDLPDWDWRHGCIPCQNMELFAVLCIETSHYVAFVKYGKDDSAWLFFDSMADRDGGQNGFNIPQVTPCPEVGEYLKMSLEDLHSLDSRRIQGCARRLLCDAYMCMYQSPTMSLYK
Sequence of OTUB2 (Q96DC9 whole entry, species assumed): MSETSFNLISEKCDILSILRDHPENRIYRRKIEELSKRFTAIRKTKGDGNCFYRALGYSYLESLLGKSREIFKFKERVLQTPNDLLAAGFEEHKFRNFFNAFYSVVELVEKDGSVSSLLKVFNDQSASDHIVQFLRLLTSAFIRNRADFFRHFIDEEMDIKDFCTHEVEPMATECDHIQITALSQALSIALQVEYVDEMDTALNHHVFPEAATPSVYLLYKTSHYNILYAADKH
Sequence of USP15 (Q9Y4E8 whole entry, species assumed): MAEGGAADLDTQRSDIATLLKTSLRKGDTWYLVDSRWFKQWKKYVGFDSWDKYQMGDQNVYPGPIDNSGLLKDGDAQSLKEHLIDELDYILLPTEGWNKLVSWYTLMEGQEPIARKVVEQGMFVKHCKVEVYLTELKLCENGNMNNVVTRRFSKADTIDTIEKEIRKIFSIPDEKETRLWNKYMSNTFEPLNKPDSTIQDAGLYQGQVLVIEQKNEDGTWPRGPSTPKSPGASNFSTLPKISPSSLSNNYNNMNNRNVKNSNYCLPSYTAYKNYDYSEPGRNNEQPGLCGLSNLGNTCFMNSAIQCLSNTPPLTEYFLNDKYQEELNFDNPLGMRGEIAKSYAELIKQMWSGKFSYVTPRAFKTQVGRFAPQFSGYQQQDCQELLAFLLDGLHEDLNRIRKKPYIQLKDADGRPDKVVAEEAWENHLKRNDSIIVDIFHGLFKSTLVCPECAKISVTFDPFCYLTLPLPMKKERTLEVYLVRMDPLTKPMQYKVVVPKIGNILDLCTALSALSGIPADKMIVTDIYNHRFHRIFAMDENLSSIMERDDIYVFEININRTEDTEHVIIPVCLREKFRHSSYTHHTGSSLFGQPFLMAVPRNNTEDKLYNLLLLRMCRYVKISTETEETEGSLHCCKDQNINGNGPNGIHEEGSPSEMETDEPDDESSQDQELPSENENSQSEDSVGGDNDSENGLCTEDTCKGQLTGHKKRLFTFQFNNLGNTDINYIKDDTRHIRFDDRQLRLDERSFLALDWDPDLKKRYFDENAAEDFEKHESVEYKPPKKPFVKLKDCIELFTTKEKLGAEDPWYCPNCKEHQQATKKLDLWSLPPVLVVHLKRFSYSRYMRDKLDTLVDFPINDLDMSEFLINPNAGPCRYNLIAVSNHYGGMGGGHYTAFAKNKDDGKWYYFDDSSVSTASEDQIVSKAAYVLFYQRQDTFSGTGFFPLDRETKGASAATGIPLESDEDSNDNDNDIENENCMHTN
Sequence of USP25 (Q9UHP3 whole entry, species assumed): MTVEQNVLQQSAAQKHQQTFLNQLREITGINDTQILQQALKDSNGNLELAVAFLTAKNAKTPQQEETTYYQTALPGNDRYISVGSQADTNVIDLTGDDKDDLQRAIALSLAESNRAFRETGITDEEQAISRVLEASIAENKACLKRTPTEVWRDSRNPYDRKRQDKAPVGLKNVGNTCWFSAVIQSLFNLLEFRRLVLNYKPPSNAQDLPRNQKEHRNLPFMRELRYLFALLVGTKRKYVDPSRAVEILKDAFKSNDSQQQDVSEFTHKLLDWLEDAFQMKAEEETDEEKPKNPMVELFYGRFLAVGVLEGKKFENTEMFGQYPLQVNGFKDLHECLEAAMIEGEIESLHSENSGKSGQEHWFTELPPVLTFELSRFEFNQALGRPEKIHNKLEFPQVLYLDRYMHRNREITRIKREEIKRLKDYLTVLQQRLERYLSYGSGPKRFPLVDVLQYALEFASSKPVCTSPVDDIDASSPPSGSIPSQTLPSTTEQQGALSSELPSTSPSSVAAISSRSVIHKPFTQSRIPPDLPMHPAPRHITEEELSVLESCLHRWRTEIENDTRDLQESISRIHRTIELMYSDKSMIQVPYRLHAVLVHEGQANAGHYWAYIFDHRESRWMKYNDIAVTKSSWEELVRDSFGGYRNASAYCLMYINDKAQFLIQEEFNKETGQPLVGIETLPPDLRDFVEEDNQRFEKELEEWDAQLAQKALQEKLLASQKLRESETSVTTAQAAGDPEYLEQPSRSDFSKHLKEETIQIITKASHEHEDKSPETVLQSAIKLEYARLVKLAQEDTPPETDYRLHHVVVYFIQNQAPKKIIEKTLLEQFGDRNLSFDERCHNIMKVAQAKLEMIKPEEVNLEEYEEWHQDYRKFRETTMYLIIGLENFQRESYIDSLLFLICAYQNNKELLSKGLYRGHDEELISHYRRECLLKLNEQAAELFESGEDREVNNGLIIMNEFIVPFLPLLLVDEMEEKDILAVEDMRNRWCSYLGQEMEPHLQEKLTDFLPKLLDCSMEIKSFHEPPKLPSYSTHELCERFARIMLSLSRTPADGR
Sequence of Trabid (Q9UGI0 whole entry, species assumed): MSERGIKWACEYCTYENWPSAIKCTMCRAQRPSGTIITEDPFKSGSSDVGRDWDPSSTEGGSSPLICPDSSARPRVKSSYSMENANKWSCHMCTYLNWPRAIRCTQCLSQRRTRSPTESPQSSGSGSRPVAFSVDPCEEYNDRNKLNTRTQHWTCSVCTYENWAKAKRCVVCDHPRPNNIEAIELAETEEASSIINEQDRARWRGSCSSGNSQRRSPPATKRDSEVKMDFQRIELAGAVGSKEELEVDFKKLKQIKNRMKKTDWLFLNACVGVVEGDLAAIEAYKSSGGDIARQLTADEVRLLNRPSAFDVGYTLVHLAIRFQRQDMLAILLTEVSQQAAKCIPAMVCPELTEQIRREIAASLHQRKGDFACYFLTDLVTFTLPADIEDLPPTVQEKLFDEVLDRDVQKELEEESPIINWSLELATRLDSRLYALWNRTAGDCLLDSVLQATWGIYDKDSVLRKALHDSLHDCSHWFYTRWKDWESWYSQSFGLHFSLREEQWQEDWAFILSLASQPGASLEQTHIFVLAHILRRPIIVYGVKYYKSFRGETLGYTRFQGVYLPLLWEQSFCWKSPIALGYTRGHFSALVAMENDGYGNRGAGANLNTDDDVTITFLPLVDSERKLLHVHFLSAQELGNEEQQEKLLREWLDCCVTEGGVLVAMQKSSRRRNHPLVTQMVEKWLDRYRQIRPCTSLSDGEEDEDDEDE
Sequence of UchL3 (P15374 whole entry, species assumed): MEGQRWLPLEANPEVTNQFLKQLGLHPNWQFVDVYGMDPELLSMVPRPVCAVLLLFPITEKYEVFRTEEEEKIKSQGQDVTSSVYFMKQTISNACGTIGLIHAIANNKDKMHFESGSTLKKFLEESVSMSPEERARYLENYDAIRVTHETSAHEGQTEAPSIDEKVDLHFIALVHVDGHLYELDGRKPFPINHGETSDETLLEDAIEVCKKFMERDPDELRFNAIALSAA
T2 sequence (Q9HC62 396-560 limits assumed): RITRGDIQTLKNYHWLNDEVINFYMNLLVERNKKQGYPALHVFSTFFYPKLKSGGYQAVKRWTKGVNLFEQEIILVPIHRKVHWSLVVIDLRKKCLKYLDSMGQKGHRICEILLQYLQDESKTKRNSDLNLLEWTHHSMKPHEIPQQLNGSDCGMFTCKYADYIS

Question: Which results are given for `C[C@@H]1[C@H]2CCN(C(=O)c3ncc(-c4ccnc(C#N)c4)o3)[C@H]2CN1C#N` [MTX115325]?
Answer: TOM20-ubiquitylation ([1]; A53T neurons, 7 days at 10 nM, 100 nM or 1 µM): caused the upregulation of TOM20-ubiquitylation; TOM20-ubiquitylation ([1]; A53T αSyn background, 24 h, 1 µM): increased TOM20-ubiquitylation; Prefrontal cortex free CMax [2]: 528 nM; Tolerability (clinical observations, pathology) [3]: well tolerated with no adverse clinical observations or pathology findings; Percentage of ipsilateral vs contralateral TH+ neurons ([4]; 50 mg/kg BID oral, 10 weeks, vehicle 61.7%, p 0.029): 89.08%; Percentage of ipsilateral vs contralateral TH+ neurons in SNpc ([4]; AAV-A53T-SNCA mice, individual animals): 43.6893 and 97.2222 and 27.4336 and 125.243 and 125 and 105.063 and 101.25 and 55.1724 and 95.8333 and 93.9394 and 113.861 and 96.0526 and 68.5315 and 98.8095; Beneficial effects at lower doses in a subsequent study ([4]; lower doses, doses not given, peer review reply): not show beneficial effects; Phosphorylated S129-αSyn ([5]; 50 mg/kg, SNpc): significantly reduced; Figure S7c immunostaining quantification, Left [5, 6]: 0 (7×) and 0.04487 and 0.008105 and 0.007836 and 0.01908 and 0.009848 and 0.001515 and 0.003247 and 0.005828; Figure S7d immunostaining quantification, Left [5, 6]: 0 (10×) and 1.603 and 0.7671 and 1.12 and 0.7902; Figure S7c immunostaining quantification, Right [5, 7]: 0.007974 and 0.07707 and 0.1923 and 0.06947 and 0.001983 and 0 (5×) and 0.06633 and 0.1857 and 0.01165 and 0.002029 and 6.4046e-5; Figure S7d immunostaining quantification, Right [5, 7]: 57.3627 and 99.9359 and 9.299 and 6.893 and 1.412 and 0 (4×) and 0.2913 and 18.3383 and 84.6359 and 0.2072 and 0.6527; IC50 (USP2; Supplementary Fig. 6a, read-out: Selectivity vs DUBs (IC50), USP2): 24.9 µM; IC50 (USP2; USP2, read-out: IC50): 24.9 µM; IC50 (Cathepsin L): 42.1 µM; IC50 (USP16): 83.7 µM; IC50 (USP25): 93.2 µM; IC50 (USP6): 96.3 µM; IC50 (USP36 CD): 157 µM; IC50 (MINDY3): > 300 µM; IC50 (OTUB1/UBCH5B): > 300 µM; IC50 (CYLD): > 300 µM; IC50 (SENP2 CD): > 300 µM; IC50 (UchL5): > 300 µM; IC50 (UchL3): > 300 µM; IC50 (OTUB2): > 300 µM; IC50 (USP7): > 300 µM; IC50 (OTUD5(p177S)): > 300 µM; IC50 (MINDY2): > 300 µM; IC50 (USP15): > 300 µM; IC50 (USP1): > 300 µM; IC50 (Trabid): > 300 µM; IC50 (USP20): > 300 µM
